# Values quoted from earlier work in patent US20130281390A1, “METHOD FOR TREATING DRY EYE” (priority 2010, published 2013).
# System: subjects with meibomian gland dysfunction
# Details: daily topical administration to the ocular surface
compound,measurement,value
CC[C@H]1OC(=O)[C@H](C)[C@@H](O[C@H]2C[C@@](C)(OC)[C@@H](O)[C@H](C)O2)[C@H](C)[C@@H](O[C@@H]2O[C@H](C)C[C@H](N(C)C)[C@H]2O)[C@](C)(O)C[C@@H](C)CN(C)[C@H](C)[C@@H](O)[C@]1(C)O [azithromycin],physicochemical properties of the meibum,improved the physicochemical properties of the meibum towards that of normal subjects
